Several values for one entry are separate records, joined by “and”; a condition that tells them apart may be missing. Equal values may be shown once. Entries after “also recorded” stand apart in the source; their conditions may differ. Read-outs that look alike come from different tables or passages of the source.
Tests used:
PTP CD45 receptor = target: T1, PTP CD45 receptor (Homo sapiens, UniProt P08575); assay: Binding to and up-regulation of PTP CD45 receptor
T1 sequence (P08575 26-1306): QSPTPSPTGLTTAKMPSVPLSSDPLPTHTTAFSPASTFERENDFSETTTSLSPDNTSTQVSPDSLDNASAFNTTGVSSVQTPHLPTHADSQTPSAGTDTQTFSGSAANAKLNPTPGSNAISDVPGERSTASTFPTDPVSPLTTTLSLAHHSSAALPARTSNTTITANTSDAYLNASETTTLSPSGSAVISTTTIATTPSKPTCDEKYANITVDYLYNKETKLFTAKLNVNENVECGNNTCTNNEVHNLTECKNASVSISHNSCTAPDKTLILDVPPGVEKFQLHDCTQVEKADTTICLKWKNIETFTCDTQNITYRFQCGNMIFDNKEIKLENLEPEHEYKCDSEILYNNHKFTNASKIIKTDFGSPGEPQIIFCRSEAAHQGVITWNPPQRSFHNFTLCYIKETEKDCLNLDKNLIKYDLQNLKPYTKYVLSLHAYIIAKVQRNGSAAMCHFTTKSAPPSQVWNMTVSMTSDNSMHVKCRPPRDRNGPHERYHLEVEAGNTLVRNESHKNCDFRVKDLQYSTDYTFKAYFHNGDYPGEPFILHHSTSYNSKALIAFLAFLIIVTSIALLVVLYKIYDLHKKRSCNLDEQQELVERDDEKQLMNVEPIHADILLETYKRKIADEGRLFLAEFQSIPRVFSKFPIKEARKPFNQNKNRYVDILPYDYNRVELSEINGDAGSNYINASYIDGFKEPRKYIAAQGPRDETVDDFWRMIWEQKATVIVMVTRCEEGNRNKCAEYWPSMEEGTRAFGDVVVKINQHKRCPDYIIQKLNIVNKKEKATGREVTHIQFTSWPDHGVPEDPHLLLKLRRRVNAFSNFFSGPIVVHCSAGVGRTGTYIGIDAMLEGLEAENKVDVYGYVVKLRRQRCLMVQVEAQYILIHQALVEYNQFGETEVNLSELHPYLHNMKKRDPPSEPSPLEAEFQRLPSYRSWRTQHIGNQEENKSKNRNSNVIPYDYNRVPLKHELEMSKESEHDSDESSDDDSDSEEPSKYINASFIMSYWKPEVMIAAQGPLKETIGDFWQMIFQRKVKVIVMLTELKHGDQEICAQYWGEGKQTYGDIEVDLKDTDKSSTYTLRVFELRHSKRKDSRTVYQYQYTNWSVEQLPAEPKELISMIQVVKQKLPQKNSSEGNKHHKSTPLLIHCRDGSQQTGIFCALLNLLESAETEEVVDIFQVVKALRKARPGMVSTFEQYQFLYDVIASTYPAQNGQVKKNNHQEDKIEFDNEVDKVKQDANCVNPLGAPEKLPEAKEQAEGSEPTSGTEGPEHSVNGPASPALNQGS

lymphocytes in culture [1] = assay: Lymphocyte blastogenesis, blasts per high powered field; format: cell-based; details: number of blasts per high powered field
Method: (§1) Once candidates have been selected as potential resonance modulators, they can be easily assayed to determine whether they induce lymphocyte blastogenesis and activate lymphocytes. Such an assay is found in Morgan et al., Anticancer Research 13:1763-1768 (1993), which is incorporated by reference. See also Janossy et al., Clin. Exp. Immunol. 14:581-596 (1973). Briefly, uptake of [^3]thymidine was measured for lymphocytes in culture. Lymphocytes were cultured in RPMI-1640 tissue culture medium supplemented with 10% fetal bovine serum (FBS). Following stimulation with the resonance modulator, tritiated thymidine (2-20 μCi/ml, specific activity 2 Ci/mmol) was added to the cells and incubated with them. The uptake of [^3]thymidine was stopped by the addition of cold 10% trichloroacetic acid after a selected period of time, and the radioactivity of the samples measured in a scintillation counter. The % lymphoblast was determined by counting the number of blasts per high powered field (hpf) while % activation was determined by uptake of the tritiated thymidine. The increase voltage was measured with an oscilloscope as in Example 7.

[2] = system: malignant squamous cell cancer (SCCA-HM); assay: BDP-DNP on squamous cell cancer with T-lymphocytes in tissue culture; format: cell-based
Text: FIG. 15 describes the impact of BDP-DNP on cell growth for malignant squamous cell cancer (SCCA-HM) growing in culture (pre-post Rx). On the left are large lacey star shaped squamous 15 cancer cells associated with small white clumps of naïve T-lymphocytes. […] The dark background seen on the right is due to the color of the drug. All the fluffy white cells are large clumps of activated lymphocytes.

lymphocytes in culture [3] = assay: Lymphocyte activation, tritiated thymidine uptake; format: cell-based; details: uptake of tritiated thymidine
Method: as §1

[4] = system: vaginal cancer / cervical cancer; assay: A-007 0.25% gel intravaginally, cancer response and toxicity; details: per patient
[5] = system: T-lymphocytes (CD markers); assay: A-007 0.25% gel intravaginally, T-cell profile (tissue/blood); format: in vivo, Humans; design: key: NC: no change; details: per patient; intravaginal gel
[6] = system: cervical early cancer-in-situ; assay: A-007 gel in cervical cancer-in-situ (single patient); format: in vivo, human; details: 0.25% gel (2 g) daily for 5 days
Text: The responses are associated with increased organization of T-lymphocyte patterns and disappearance of cancer cells.

[7] = system: anal squamous cell cancer; assay: A-007 0.25% gel intra-anally, cancer response and toxicity; format: in vivo, human; details: per patient
[8] = Absorption and disposition of A-007 (blood detection, skin absorption, excretion)
[9] = system: T-lymphocytes (CD4+, CD3+, CD8+, CD45+) and CD11c+ dendritic cells in skin; assay: Histochemical assays of biopsies of human skin topically treated with A-007; format: in vivo
[10] = system: benign fibroblasts or healthy epithelial cells; assay: A-007 induced cell death in non-HPV cells; format: cell-based; details: cells not containing or transformed by HPV
[11] = system: naive human lymphocytes (obtained from peripheral blood); assay: Aggregation of naive lymphocytes around an A-007 crystal in tissue culture; format: cell-based; details: 0.5 mg crystals in RPMI, one hour
Text: The ability of an agent to induce aggregation of naïve lymphocytes in culture around a test agent is another factor to be considered in determining whether the agent is a resonance modulator suitable for use in the methods disclosed herein. The ability to induce aggregation within one hour is a particularly strong indication that the compound is suitable for further investigation. “Aggregation” refers to a substantial increase in the number of lymphocytes, such as an increase visible by microscopy, as in FIG. 5.

[12] = system: T-lymphocytes (CD markers); assay: A-007 0.25% gel intra-anally, T-cell profile (tissue/blood); format: in vivo, human; design: key: NC: no change; details: intra-anal gel
[13] = as seen by crystallography (Klein et al. 1993); cited from earlier work
HeLa cancer cells (HPV+) = assay: HeLa cancer cells incubated with A-007 crystals; format: cell-based; details: incubated with crystals for 24 hours
Text: Then through cell membrane chemical interphase and modulation of the PTP receptors the cells down regulate, darken with pyknotic changes associated with DNA agglutination resulting in death (lower clumped dark staining cells). The attraction that the crystals have for the cells is associated with intramolecular resonance and associated magnetic patterns described in FIGS. 3 and 4.

HPV = assay: A-007 0.25% gel intravaginally, HPV response (titers); format: in vivo, Humans; design: key: NC: no change; details: per patient, intravaginal gel
[14] = system: Cutaneous Metastases (cancer lesions); assay: Phase I/II trials, topical A-007 0.25% gel on cutaneous metastases; format: in vivo, human
CD45+ receptor = CD45+ receptor modulation in lymphocytes and dendritic cells; format: cell-based, human
Text: CD45+ is expressed on dendritic cells, lymphocytes, monocytes, and leukocytes, as well as some neoplastic cells, as a protein tyrosine phosphatase (TP), which together with other members of the PTPs, are responsible for […] tyrosine residues. Blockade of the CD45+ receptor sites with anti-CD45 antibodies inhibits T-cell activation and prevents mitogen (lectin) activation of naïve T-cells. CD45+ receptor surfaces contain arginine, serine/threonine and cysteine moieties, which can bind to and/or transfer natural ligands to the surface of APCs, as well as hydrolyze tyrosyl phosphates. […] Different resonance states of A-007 are capable of interacting with different immune cells.

lymphoma = assay: A-007 gel on the skin of a patient with lymphoma; format: in vivo, human; details: 0.25% gel (0.5 g)
[15] = 0.4 mcg/mL, 24 hours incubation
[16] = 53 people treated with topical 0.25% gel
[17] = Breast, 0.25% gel topically twice daily

O=[N+]([O-])c1ccc(NN=C2C(=Cc3ccccc3)CCCC2=Cc2ccccc2)c([N+](=O)[O-])c1 [Compound 38, 2,6-Dibenzylidenecyclohexanone-2,4-dinitrophenylhydrazone]
binding affinities to PTP CD45 receptor (PTP CD45 receptor): improved binding affinities
effect on PTP CD45 receptor (PTP CD45 receptor): upregulates the receptor
binding affinities to PTP CD45 receptor (PTP CD45 receptor; listed as structure 38): excellent binding affinities
% Lymphoblast (lymphocytes in culture [1]): 100%
cancer cells after treatment [2, 15]: No cancer cells are detected
effect on naïve T-lymphocytes in the culture [2, 15]: impressive stimulation
immune modulating anticancer activities vs. A-007 ([2]; relative to A-007): 100 fold
% Activation (lymphocytes in culture [3]): 100%

CC(C)C(=O)Nc1ccc([N+](=O)[O-])c(C(F)(F)F)c1 [Fludamide, reference compound]
% Lymphoblast (lymphocytes in culture [1]): 0%
% Activation (lymphocytes in culture [3]): 0%

O=C1c2ccccc2C(=NNc2ccc([N+](=O)[O-])cc2[N+](=O)[O-])c2ccc(O)c(O)c21 [DNPA, 10-[(2,4-dinitrophenyl)hydrazono]-1,2-dihydroxy-10H-anthracen-9-one]
% Lymphoblast (lymphocytes in culture [1]): 50%
% Activation (lymphocytes in culture [3]): 75%

O=[N+]([O-])c1ccc(NN=C(c2ccc(O)cc2)c2ccc(O)cc2)c([N+](=O)[O-])c1 [Compound A-007, 4,4′-dihydroxybenzophenone-2,4-dinitrophenylhydrazone]
Response (Cancer) ([4]; 2 g gel intravaginally daily for five days): 75% and >75%
Toxicity ([4]; intravaginal gel): None
T-Cell Profile (Tissue/Blood) CD8/4+ [5]: NC
duration of cure [6]: over one year
response of cervical carcinoma-in-situ (biopsy) [6]: disappearance of the cancer cells; also recorded: loss of malignant changes
% Lymphoblast (lymphocytes in culture [1]): 75%
Response (Cancer) ([7]; gel intra-anally daily for five days): 0% (4×) and 100%
Toxicity ([7]; intra-anal gel): None
% Activation (lymphocytes in culture [3]): 100%
excretion ([8]; administered to a human subject): excreted substantially unchanged
absorption from/through the skin ([8]; applied to skin, animal and human studies): not absorbed from the skin; also recorded: substantially not absorbed through the skin
absorption into the blood ([8]; in vivo): not absorbed into the blood
detection of A-007 in blood ([8]; subjects treated with topical A-007): not been detected in the blood
T-lymphocyte infiltrates (CD4+, CD3+, CD8+, CD45+) in treated skin ([9]; biopsies during topical treatment): increased infiltrates
CD11c+ dendritic cell infiltrates in treated skin ([9]; treated areas): Increased skin infiltrates
A-007 induced cell death [10]: not observed
aggregation of lymphocytes around crystal [11]: lymphocytes and dendritic cells aggregate around the crystal or pellet
T-Cell Profile (Tissue/Blood) All others ([12]; patient A-3): NC
T-Cell Profile (Tissue/Blood) CD4/8 ([12]; patient A-5): NC
T-Cell Profile (Tissue/Blood) CD45+ ([12]; per patient): (NC)
hydrogen bond donors [13]: greater than 5
effect on HeLa cancer cells (HeLa cancer cells (HPV+)): undergo necrobiosis and death; also recorded: undergo pyknosis (DNA agglutination and necrosis) and die
HPV (Response), changes in HP titers (HPV): +(50%)
HPV (Response), changes in HP titers (HPV; CR as in Table 1): +(NC)
complete responses (number) [14, 16]: ten
objective remissions [14, 16]: 37%
Duration ([14]; Angiosarcoma): 0 wks
Response: number NR ([14]; Angiosarcoma): 2 NR
Toxicities ([14]; Angiosarcoma): 0
Duration ([14]; Anogenital): 1.8+ yrs
Response: number CR ([14]; Anogenital): 5
Response: number PR ([14]; Anogenital): 2
Toxicities ([14]; Anogenital): 0
Toxicities (number, skin, mild) ([14]; Breast): 7 skin (mild)
Response: number CR [14, 17]: 5
Response: number PR [14, 17]: 7
Response: number stable [14, 17]: 6 stable
Duration ([14]; H/N (Sq. Cell)): 0 wks
Toxicities ([14]; H/N (Sq. Cell)): 0
Duration ([14]; KS (Kaposi's sarcoma)): 11 wks
Response: number NR ([14]; KS (Kaposi's sarcoma)): 2 PR, 2 NR
Response: number PR ([14]; KS (Kaposi's sarcoma)): 2 PR, 2 NR
Toxicities ([14]; KS (Kaposi's sarcoma)): 0
Duration ([14]; Melanoma): 3-15 wks
Response: number NR ([14]; Melanoma): 3
Toxicities (number, skin, mild) ([14]; Melanoma): 2 Skin (mild)
Response: number PR ([14]; Melanoma, 0.25% gel topically twice daily): 1
Duration ([14]; NHL): 3.5 yrs
Toxicities ([14]; NHL): 0
Response: number PR ([14]; NHL (non-Hodgkins' lymphoma)): 1 PR
local or systemic toxicity ([14]; topical A-007): substantial absence of A-007 induced local or systemic toxicity
inhibition of CD45+ (CD45+ receptor): does not inhibit or block CD45+
CD45+ and CD11c+ receptors in human peripheral dendritic cells (CD45+ receptor; A-007-activated DCs): up-regulating both CD45+ and CD11c+ receptors
peripheral lymphocyte profile (total lymphocyte count) (lymphoma): improvement

From patent publication US20070049514A1, “Resonance modulator for diagnosis and therapy” (priority 2003, published 2007)
